Laboratory results reported in patent US9662322B2 (TEVA PHARMACEUTICAL INDUSTRIES, LTD., priority 2014, dated 2017).

Test system: subjects with relapsing remitting multiple sclerosis (RRMS)
Assay: ALLEGRO Phase III trial: MRI endpoints
Type: in vivo, human
Experimental: MRI related secondary endpoints were the cumulative number of GdE lesions at months 12 and 24; and the cumulative number of new T2 lesions (relative to previous scan) at months 12 and 24; MRI exploratory endpoints included percent change of brain volume using SIENA.
Additional MRI methodological details are as follows: In all patients, MRI scans were performed at 0, 12, and 24 months. Before a site could enroll study participants they were required to image a volunteer patient with definite MS twice with repositioning according to a strict study imaging protocol using scanners with a minimum field strength of 1.5 T. Fast/turbo spin echo (repetition time [TR]=2200-3500 ms, echo time [TE]=14-50/90-120 ms, echo train length=2-7, slice thickness=3 mm, and contiguous axial slices=44) sequences were used to obtain proton density and T2-weighted images. High resolution pre-contrast 3D T1-weighted sequences (TR=8-15 ms, TE=3-5 ms, inversion time=1.1 s, number of slices 160, slice thickness 1.2 mm, flip angle [FA]=10-15, orientation sagittal) were acquired for quantification of brain atrophy. Finally, T1-weighted images (1.5 T scanners: conventional spin echo sequence; TR=600-650 ms, TE=10-20 ms, slice thickness=3 mm, and contiguous axial slices=44; 3.0 T scanners: 3D sequence; TR=5-9 ms, TE=2-5 ms, FA=15, slice thickness=3 mm, and contiguous axial slices=44) were obtained 5 minutes after injection of 0.1 mmol/kg of gadolinium. A series of axial, coronal, and sagittal images was obtained to create an axial reference scan for subsequent careful repositioning of each patient at the follow-up session. Axial slices were positioned to run parallel to a line joining the most inferioanterior and inferioposterior parts of the corpus callosum.
Image quality was reviewed at the MRI-AC using predetermined criteria. The identification of GdE and T2-hyperintense lesions was done by consensus of two experienced observers. The number of total and new GdE lesions and new/enlarging T2-hyperintense lesions were counted. The identified lesions were then outlined by trained technicians using a semiautomated segmentation technique based on local thresholding (Jim 4.0; Xinapse System, Leicester, UK) and lesion volumes were calculated automatically. Percentage brain volume changes and cross-sectional normalized brain volumes were measured on […] T1-weighted images, with Structural Image Evaluation of Normalized Atrophy (SIENA) software and a cross-sectional method (SIENAX) (available from the FMRIB Software Library, Oxford University, Oxford, UK; http://www.fmrib.ox.ac.uk/analysis/research/siena/siena).
Analyses of the secondary MRI endpoints of the cumulative number of GdE and new/enlarging T2 lesions at 12 and 24 months involved a baseline-adjusted negative binomial regression with an “offset” employing the log of the relative exposure to adjust for early-terminated patients. The model included as covariates the number of enhancing lesions at baseline, and country or geographical region. In the case of new/enlarging T2 lesion analysis, the baseline T2 lesion volume was also added. The MRI secondary endpoints analyses were tested simultaneously with an overall type I error of 5%, using the Hochberg's step-up modification to Bonferroni's method to the two P-values obtained from the analyses of these two endpoints. The analysis of the brain atrophy endpoint involved a baseline-adjusted analysis of covariance (ANCOVA). The covariates were the number of GdE lesions at baseline and the country or region. The exploratory endpoints were all analyzed at a significance level of 5%.
Secondary endpoints of the ALLEGRO trial included disease activity as measured by MRI, including counts of Gadolinium enhancing T1 lesions and new-T2 hyperintense lesions. […] Conventional MRI scans for new T1 hypointense lesions, and brain volume using SIENA were performed at baseline, 12 and 24 months. […]

## CCN(C(=O)c1c(O)c2c(Cl)cccc2n(C)c1=O)c1ccccc1 [Laquinimod, laquinimod]
Baseline to 12 months, vs placebo
  BA at month 12, Effect (reduction in brain atrophy): 53% reduction
Change baseline to month 24
  Hypointense T1 volume, BL to M 24: 7%
Month 0 (baseline)
  Hypointense T1 volume month 0: 2.65
  T2 volume month 0: 7.27
post-hoc
  % BV change by previous medications: naïve: −0.82%
  GdE lesion free M 12: 69%
post-hoc, vs placebo
  % BV change M 24, GdE = 0, Effect: 30% reduction
  % BV change M 24, GdE > 0, Effect: 37% reduction
  % BV change by previous medications: naïve, Effect: 38% reduction
  % BV change by previous medications: not naive, Effect: 23% reduction
  BA for pts with all scans: Change BL to M 12, Effect: 60%
  BA for pts with all scans: Change BL to M 24, Effect: 57%
  Cum # T1 GdE by previous medications: naïve, Effect: 42% reduction
  Cum # T1 GdE by previous medications: not naive, Effect: 32% reduction
  Cum New T2 by previous medications: naïve, Effect: 33% reduction
  Cum New T2 by previous medications: not naive, Effect: 24% reduction
  GdE counts M 12, Effect: 36% reduction
  GdE counts M 24, Effect: 39% reduction
  GdE lesion free M 12, Effect: 49% odds
  GdE lesion free M 24, Effect: 72% odds
  GdE volume M 12, Effect: 4.5%
  GdE volume M 24, Effect: 4.7%
  New-T1 Hypointense Lesions M 12, Effect: 27% reduction
  New-T1 Hypointense Lesions M 24, Effect: 32% reduction
  T1 Hypointense Lesion free M 12, Effect: 28% odds
  T1 Hypointense Lesion free M 24, Effect: 47% odds
  T1 hypointense by previous medications: naïve, Effect: 28% reduction
  T1 hypointense by previous medications: not naive, Effect: 25% reduction
  T2 lesion free M 12, Effect: 39% odds
  T2 lesion free M 24, Effect: 40% odds
Vs placebo
  Average MTR of T2 visible lesions, difference: 0.330
  Cumulative new Hypointense T1 months 12 + 24, Effect: 27% reduction
  Cumulative number of GdE lesions at months 12 and 24, Effect: 37 % reduction
  Cumulative number of new/enlarging T2 lesions at 12 and 24 months, Effect: 30% reduction
  Hypointense T1 volume month 12, Effect: ~1%
  Hypointense T1 volume month 24, Effect: ~1%
  T2 volume month 12, Effect: 5%
  T2 volume month 24, Effect: 5%
Vs placebo, listed as laquinimod
  Cumulative number of new/enlarging T2 lesions at 12 and 24 months, Effect: 30 % reduction
